Earlier results, collected in patent US9801907B2, “Film-coated and/or granulated calcium-containing compounds and use therof in pharmaceutical compositions” (Takeda Nycomed AS, priority 2005, dated 2017).

What was measured:
[1] = parts substance in parts water
[2] = annual injections of 150.000-300.000 IU; not in the rate of hip fracture

Row | Solubility in water at 20° C. [1] | Compound | overall fracture rate [2]
1 | Freely soluble | OC[C@@H](O)[C@@H](O[C@H]1O[C@H](CO)[C@@H](O)[C@H](O)[C@H]1O)[C@H](O)[C@@H](O)CO [Maltitol] | –
2 | – | vitamin D | significant reduction
3 | Freely soluble | Maltodextrins | –
